According to PMC5770468, “Cardiac glycoside/aglycones inhibit HIV-1 gene expression by a mechanism requiring MEK1/2-ERK1/2 signaling” (Scientific Reports, 2018):

Assays:
[1] = test system: host alternative RNA splicing; set-up: method as in PMID 22456266; conditions: of 8,175 analyzed, cited from earlier work
[2] = set-up: method as in PMID 23555254, PMID 17706876, PMID 6409639; conditions: cited from earlier work
[3] = test system: nascent protein synthesis; assay type: cell-based, human; conditions: 220 nM
Experimental: To monitor HIV-1 gene expression or replication, Gag release into cell culture supernatants were assayed by ELISA using a p24^CA antigen capture assay kit (AIDS & Cancer Virus Program, NCI-Frederick, Frederick, MD USA). Media harvested from HIV clinical isolates were diluted ~10 fold (or as necessary) prior to performing this assay. For analysis of HIV-1 and SR protein expression (and phosphorylation states with calf intestinal alkaline phosphatase treatments), cells were lysed and analyzed by western blot as previously outlined. Phosphatase inhibitors (e.g. 10 mM sodium fluoride, 2 mM sodium orthovanadate) were added to solutions requiring phospho protein analyses. […] Activation of MAPKs was determined by western blot quantitation and calculation of phospho/total protein levels. […] Stain-Free™ gels were casted and proteins were detected as described in 10% TGX-Stain-Free FastCast Acrylamide Kit from Bio-Rad (#161-0183). […] In representative gel/blot sets, samples were electrophoresed from the same experiment as controls, resolved simultaneously on identically cast gel(s), transferred to same PVDF (by either wet electrophoretic or by Bio-Rad Trans-Blot® Turbo Transfer System), and detected at same time. […] Cells were subsequently washed, whole cell lysates prepared, and proteins quantified by western blot using an anti-puromycin antibody (EMD Millipore, #anti-12D10) as described above. […]

| Compound | host splicing events affected ([1]; q-value = 0, sepscore ≥ 1.0) [events] | host splicing events affected, share of analyzed [1] | recommended serum concentration in patients treated for heart conditions [2] [nM] | effect on nascent protein synthesis [3] |
| --- | --- | --- | --- | --- |
| C[C@H]1O[C@@H](O[C@H]2[C@@H](O)C[C@H](O[C@H]3[C@@H](O)C[C@H](O[C@H]4CC[C@@]5(C)[C@H](CC[C@@H]6[C@@H]5CC[C@]5(C)[C@@H](C7=CC(=O)OC7)CC[C@]65O)C4)O[C@@H]3C)O[C@@H]2C)C[C@H](O)[C@@H]1O [Digitoxin] | 1681 | ~ 20.6% | 20 to 34 |  |
| COc1ccc(C[C@H]2NC[C@H](O)[C@H]2OC(C)=O)cc1 [anisomycin, Anisomycin] |  |  |  | little to no effect |
